Test results as given in article PMC3926237, “Identification of Levothyroxine Antichagasic Activity through Computer-Aided Drug Repurposing” (The Scientific World Journal, 2014).

Molecular target: cruzipain (Cz) (Trypanosoma cruzi, UniProt P25779)
Experiment: chromogenic Bz-Pro-Phe-Arg-pNA protease assay on partially purified native cruzipain, […] nm
Assay type: biochemical

Chain of cruzipain (Cz) (P25779 123-467): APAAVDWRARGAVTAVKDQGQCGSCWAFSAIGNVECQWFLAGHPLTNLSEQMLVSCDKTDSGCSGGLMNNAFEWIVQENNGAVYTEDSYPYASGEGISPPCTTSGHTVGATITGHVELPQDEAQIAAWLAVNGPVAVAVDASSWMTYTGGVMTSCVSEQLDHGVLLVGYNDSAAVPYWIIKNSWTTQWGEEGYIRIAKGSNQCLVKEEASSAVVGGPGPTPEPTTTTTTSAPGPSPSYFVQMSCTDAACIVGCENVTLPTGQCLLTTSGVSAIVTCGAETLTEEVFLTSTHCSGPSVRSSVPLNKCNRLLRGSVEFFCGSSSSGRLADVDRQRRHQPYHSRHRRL

N[C@@H](Cc1cc(I)c(Oc2cc(I)c(O)c(I)c2)c(I)c1)C(=O)O [levothyroxine] gave an IC50 of 38.4 ± 6.82 µM.
